Melting point data for 89 compounds are collected here from a melting point compilation (Tetko et al.; mined from patent text by program, amines drawn as free bases though some values may be those of a salt).

Turning to `CC(C)(C)OC(=O)N1CCCC[C@H]1C(OC(=O)Nc1ccc2[nH]ncc2c1)c1cccc(C(=O)O)c1` (some centres undefined), the melting point was 178 °C.

`COc1ccc2c(c1)CCC1=C2CCC2(C(C)C)C(=O)CC=C12` (centres undefined) registered a melting point of 112 to 113 °C.

`O=C(Nc1ccc(C(F)(F)F)cc1)c1cc(-c2ccc(F)cc2F)ccc1O` had a melting point of 227 to 228 °C. The compound `COc1cc2c(cc1OC)/C(=N/OCc1ccc3nonc3c1)CCC2` returned a melting point of 139 to 140 °C. Next, `NS(=O)(=O)c1ccc(-c2noc(-c3cnn4c(C(F)(F)F)cc(-c5ccc(C(F)(F)F)c(OCC(F)(F)F)c5)nc34)n2)s1`: 255 °C; `CC1(CSc2ccccc2)COC2(CCCCCCCCCCC2)OO1` (centres undefined): 89 °C. The figure for `NC(=S)CCn1nc(-c2ccccc2)ccc1=O` is 173 to 175 °C; for `COC(=O)C(C)c1ccc2c(c1)Cc1cc(OC)ccc1-2` (centres undefined) it is 98.5 to 100 °C; for `CNC(=O)/C(=N/OC)c1ccccc1Oc1ccc(C)c(C)c1` it is 98 to 100 °C.

Compound `CCCCN(C#N)C(=O)C(C)Oc1ccc(Oc2nc3ccc(Cl)cc3o2)cc1` (centres undefined) showed a melting point of 91 to 92 °C. `Cc1nc(CC#N)c2n1-c1ccc(Cl)cc1C(c1ccccc1Cl)=NC2`: the melting point lay within 212 to 214 °C.

In the case of `N#CCc1cccc2c(-c3ccccc3Cl)nccc12`, the melting point amounted to 113 °C. Next, `Cc1c(OCC(F)(F)F)ccnc1CSc1nc2cc(N3CCN(C)CC3)c(F)cc2[nH]1`: 109 to 110 °C.

Take `Cc1cc(C)c(-n2ccc3c(=O)[nH][nH]c(=O)c32)c(C)c1`: the melting point was > 300 °C.

As for `CCCCCCCCCCCCn1nnc(CC(=O)Nc2c(C(C)C)cccc2C(C)C)n1`, the melting point was 75 to 79 °C. The figure for `O=c1oc(OCCCCBr)c(Cl)c2ccccc12` is 75 to 77 °C; for `O=C(Nc1ccc2c(c1)nc1n2CCC1)c1cc2cccnc2n1Cc1ccccc1` it is 251 to 252 °C. Next, `Cn1c(=O)cc(-c2cccc(Cl)c2)c2cc(C(=O)c3ccoc3)ccc21`: 192 °C; `CCCc1c(C(=O)CC(C)OC)c2ccc(C(N)=O)cc2n1Cc1cc2c(cc1Cl)OCO2` (centres undefined): 190 to 192 °C; `CC1=C(C#N)C(c2cccc3ncc(-c4ccccc4)cc23)C(C(=O)OC(C)C)=C(N)N1` (centres undefined): 227 to 229 °C. Next, `COc1cc(Nc2c(C#N)cnc3cc(-c4ccc(C(=O)O)cc4)sc23)c(Cl)cc1Cl`: > 300 °C; `O=C(N[C@H](Cc1cccc(OC(F)(F)C(F)F)c1)[C@@H](O)c1ccc(CO)cc1)c1cccc2c1C=CCCC2` (racemic): 151 to 152 °C. For the compound `CSc1c(SC)c(OC(C)=O)c2cc(Cl)ccc2c1OC(C)=O`, the melting point was in the range of 113 to 114 °C.

`CC1=C(C2OC(=O)NC2=O)CCCC1` (centres undefined) returned a melting point of 104 to 106 °C.

For the compound `CCOC(=O)C(CC(C)C)NC(=O)N1CCc2cc(S(=O)(=O)N3CCN(c4cccc(Cl)c4)CC3)ccc21` (centres undefined), the melting point fell in the range of 76 to 77 °C. The compound `CN(c1ncnc2[nH]ccc12)C1CCCCC1` returned a melting point of 177 to 180 °C. In turn, `Cc1cc2cnc(OCCc3ccc(OC(C)(C)C)cc3)nc2o1` showed a melting point of 75 °C. The figure for `CC(C)(C)OC(=O)c1nn(-c2ccc(F)cc2F)c2c1C1CCC2C1` (centres undefined) is 97 to 99 °C; for `O=C(Nc1ccc(-n2nc(C(F)(F)F)cc2C(F)(F)F)nc1)c1ccccc1Cl` it is 156 to 159 °C. Next, `COC(=O)c1cn2c(n1)COc1ccc(N)cc1-2`: 213 to 214 °C. On to `Cc1ccc(C(=O)N2CCOCC2)cc1[N+](=O)[O-]`, for which the melting point fell in the range of 108 to 110 °C. The figure for `CN1CCc2c(O)c(F)cc3c(=O)c(C(=O)O)cn1c23` is > 290 °C. Next, `CCCC(=O)NCCc1ccc(S(=O)(=O)N2CCN(C3CCCCC3)C2=N)s1`: 121 to 125 °C.

Compound `O=c1[nH]c(=O)n([C@H]2CO[C@H](CO)O2)cc1/C=C/Cl` came in with a melting point of 101 to 102 °C. The compound `CSC(=Nc1ccc(Cl)c(Cl)c1)NS(C)(=O)=O` had a melting point of 122 to 125 °C. With `COc1ccc(CCC(O)=S)cc1[N+](=O)[O-]`, the melting point lay within 130 to 132 °C. Next, `COc1ccccc1Oc1c(Cl)nc(-c2cccnn2)nc1NS(=O)(=O)CCc1cccc2ccccc12`: 192 °C. Next, `CC(=O)OC1CCc2c(C#N)cccc21` (centres undefined): 65 °C; `Cc1cccc(C)c1CCOCCCCCCNCc1c(CO)ccc(O)c1CO`: 83 to 86 °C; `CCOC(=O)c1ccc(NC(=O)C=C(c2ccccc2)c2ccc(C)cc2)cc1`: 122 to 124 °C.

The compound `O=S(=O)(NCCCn1cncn1)c1ccc(Cl)cc1` returned a melting point of 77 to 79 °C. Regarding `Cc1sc(-c2ccccc2)nc1COc1ccc(COc2ccccc2CC(=O)O)cn1`, the melting point lay in the range of 173 to 174 °C.

`CCCCCCCCCCCCC(=O)CC` had a melting point of 84 to 86 °C. `CCOC(=O)c1c(C=O)c2c(Cl)cc(Cl)cc2n1S(=O)(=O)c1ccccc1` registered a melting point of 226 °C.

`CC(=O)Nc1ccc(C(=O)O)cc1O` yielded a melting point of 249 °C. Next, `CCCCC(=O)NC(C(=O)OCC)=C(N)Sc1ccccc1`: 115 °C. `N#Cc1cccc2c1CC(=NN)c1cc(F)ccc1S2` came in with a melting point of 220 to 222 °C. Compound `Cc1ccc(N(C#N)C(=O)CCCCC(=O)N(C#N)c2ccc(C)cc2C)c(C)c1` registered a melting point of 120 to 122 °C. In turn, `Cc1c(-c2ccnc(C(F)(F)F)c2)sc2nc(N)[nH]c(=O)c12` yielded a melting point of 335 to 355 °C. Compound `CC(=O)[C@H]1CC[C@H](CNC(=O)OCc2ccccc2)CC1` had a melting point of 66 to 67 °C. Regarding `CC(N)C(=O)Nc1cc(OCC(F)(F)F)ccc1-c1cccnc1` (centres undefined), the melting point is 135 to 140 °C. Next, `COC(=O)c1cncn1C1c2ccccc2CCC1(C)C` (centres undefined): 66 to 67.5 °C. The figure for `CCc1nn(Cc2cccnn2)c2c(=O)[nH]c(-c3cc(S(C)(=O)=O)ccc3OCC(C)C)nc12` is 231 to 234 °C; for `CCCCCCCOc1cc2c(cc1C(=O)c1ccc(C(=O)O)cc1)C(C)(C)CCC2(C)C` it is 154 to 158 °C; for `CCCCCN(CCC12CC3CC(CC(C3)C1)C2)C(=O)NCCNc1ccncc1` it is 134 °C.

For the compound `C#CCNc1cccc2c1OC(F)(F)O2`, the melting point lay within 66 to 68 °C. Next, `CC(C)N(C[C@H](O)[C@H](Cc1ccccc1)NC(=O)OCc1ccccc1)NC(=O)C(C)(C)C`: 132 to 134 °C; `COc1ccc(N2CCOCC2)c2sc(-c3nc4ccccc4[nH]3)nc12`: 284 to 286 °C; `O=C(Nc1ccc(-n2nc(C(F)(F)F)cc2C(F)(F)F)cc1)C1CC1c1ccccc1` (centres undefined): 176 to 178 °C. The figure for `CCCCc1nnc2ccccc2c1Cl` is 50 °C. The figure for `CCCCCCC(=O)Nc1cccc2c1C(=O)c1ccccc1C2=O` is 133 °C; for `Oc1ccc(C2CC(c3ccc(O)cc3)C2)cc1` (centres undefined) it is 148 to 164 °C; for `CC1CCc2nc(=O)c(C(N)=O)cn21` (centres undefined) it is 223 °C. Take `CN(C)C=CC(=O)c1ccc2ccccc2c1`: the melting point fell in the range of 100 to 101 °C. Compound `COc1cccc(OCc2cccc(OCc3ccc4ccccc4n3)c2)c1C(=O)O` had a melting point of 149 to 152 °C. The compound `N#CCCCN1CCC(Nc2nc3ccccc3n2Cc2ccc(F)cc2)CC1` returned a melting point of 130 °C.

Compound `Cc1cc2c(cc1OC(=S)N(C)C)C(C)(C)CCC2(C)C` yielded a melting point of 102 to 103 °C. Take `CCN(CC)Cc1cccc(OCCCNc2nc(N)nn2C)c1`: the melting point fell in the range of 68 to 69 °C. The figure for `COc1ccc2c(-c3c(F)cccc3F)noc2c1Cl` is 175 to 179 °C. Next, `CCOC(=O)c1ncn2c1CN=C(c1cccs1)c1cc(C#C[Si](C)(C)C)ccc1-2`: 124 to 127 °C; `CCCS(=O)(=O)Nc1c(C)cc(OC(=O)NC)cc1C`: 173 to 176 °C; `Clc1ccc2oc(-c3ccccc3)cc2c1`: 140 to 143 °C. `COC(=O)c1nc(-c2ccc(Cl)c(OC)c2F)cc(N)c1Cl` had a melting point of 141 to 143 °C. Next, `Cc1cc2c(c(C(C)(C)C)c1)OCC(/C=C/C=C/C=C/C(=O)O)=C2`: 256 to 258 °C; `NC[C@H]1CN(c2ccc(N3CCOCC3=O)cc2)C(=O)O1`: 145 to 147 °C. Next, `CN(C)C(=O)Cn1nc(-c2ccccc2O)nc1-c1ccccc1O`: 196 to 197 °C. The figure for `Cc1ncc(C(=S)Nc2c(Cl)cncc2Cl)cc1OC1CCCC1` is 144 to 145 °C; for `CC(=O)OCCc1ccc2c(c1)C(=O)c1ccccc1CO2` it is 55 to 58 °C. Regarding `CC(=O)c1ccc(Nc2c3ccccc3nc3occ(Cl)c23)cc1`, the melting point was 174 to 176 °C. For `Cc1nc2c3c(c(C(=O)N4CCC4)cc2n1C)CCC1(Cc2ccccc2C1)N3`, the melting point lay in the range of 222 to 223 °C. Next, `Cc1c(O)cccc1NC(=O)CC12CC3CC(CC(C3)C1)C2`: 211 °C; `N#CCOc1cccnc1N`: 100 to 101 °C. The compound `Cc1ccnc(-c2cccc(Oc3ccccc3C)n2)n1` gave a melting point of 121 °C.

Turning to `O=[N+]([O-])c1ccc(NN=C(c2ccc(O)cc2O)c2ccc(O)cc2O)c([N+](=O)[O-])c1`, the melting point was 240 to 242 °C.

As to `O=c1c2cccnc2c(-c2cccc([N+](=O)[O-])c2)nn1Cc1ccccc1`, the melting point came to 132 °C. The figure for `CC(C)N(C(=O)CN1C(=O)C(Cc2n[nH]c3ccccc23)C(=O)N(c2ccccc2)c2ccccc21)c1ccc(C(F)(F)F)cc1` (centres undefined) is 145 to 148 °C. Next, `COc1ccc(-c2ccc(OC3SCC(O)C(O)C3O)cn2)cn1` (centres undefined): 167 °C; `Cc1c(Nc2ncc(Br)cc2C(=O)O)cccc1C(F)(F)F`: 222 to 224 °C; `O=C1CC(c2cccc(-c3csc(C(=O)NCCO)n3)c2)=Nc2ccc(-n3cccc3)cc2N1`: 236 to 238 °C.

One may read the melting point as the temperature of the solid-liquid transition.
